Source: publication PMC11648915, “Identification and development of TRPM4 antagonists to counteract neuronal excitotoxicity” (iScience, 2024)
Where two headings read alike, the source gives them in different places.

Tests used:
mouse TRPM4 = target: T1, mouse TRPM4 (Mus musculus, UniProt Q7TN37); experiment: Inside-out patch clamp, mouse TRPM4; assay type: cell-based; details: inside-out patch clamp configuration
T1 construct: Human TRPM4 (UniProtKB: Q8TD43-1) and mouse Trpm4 (UniProtKB: Q7TN37-1) were amplified via PCR; eGFP (C); expressed in transfected cells
T1 sequence (Q7TN37 whole entry): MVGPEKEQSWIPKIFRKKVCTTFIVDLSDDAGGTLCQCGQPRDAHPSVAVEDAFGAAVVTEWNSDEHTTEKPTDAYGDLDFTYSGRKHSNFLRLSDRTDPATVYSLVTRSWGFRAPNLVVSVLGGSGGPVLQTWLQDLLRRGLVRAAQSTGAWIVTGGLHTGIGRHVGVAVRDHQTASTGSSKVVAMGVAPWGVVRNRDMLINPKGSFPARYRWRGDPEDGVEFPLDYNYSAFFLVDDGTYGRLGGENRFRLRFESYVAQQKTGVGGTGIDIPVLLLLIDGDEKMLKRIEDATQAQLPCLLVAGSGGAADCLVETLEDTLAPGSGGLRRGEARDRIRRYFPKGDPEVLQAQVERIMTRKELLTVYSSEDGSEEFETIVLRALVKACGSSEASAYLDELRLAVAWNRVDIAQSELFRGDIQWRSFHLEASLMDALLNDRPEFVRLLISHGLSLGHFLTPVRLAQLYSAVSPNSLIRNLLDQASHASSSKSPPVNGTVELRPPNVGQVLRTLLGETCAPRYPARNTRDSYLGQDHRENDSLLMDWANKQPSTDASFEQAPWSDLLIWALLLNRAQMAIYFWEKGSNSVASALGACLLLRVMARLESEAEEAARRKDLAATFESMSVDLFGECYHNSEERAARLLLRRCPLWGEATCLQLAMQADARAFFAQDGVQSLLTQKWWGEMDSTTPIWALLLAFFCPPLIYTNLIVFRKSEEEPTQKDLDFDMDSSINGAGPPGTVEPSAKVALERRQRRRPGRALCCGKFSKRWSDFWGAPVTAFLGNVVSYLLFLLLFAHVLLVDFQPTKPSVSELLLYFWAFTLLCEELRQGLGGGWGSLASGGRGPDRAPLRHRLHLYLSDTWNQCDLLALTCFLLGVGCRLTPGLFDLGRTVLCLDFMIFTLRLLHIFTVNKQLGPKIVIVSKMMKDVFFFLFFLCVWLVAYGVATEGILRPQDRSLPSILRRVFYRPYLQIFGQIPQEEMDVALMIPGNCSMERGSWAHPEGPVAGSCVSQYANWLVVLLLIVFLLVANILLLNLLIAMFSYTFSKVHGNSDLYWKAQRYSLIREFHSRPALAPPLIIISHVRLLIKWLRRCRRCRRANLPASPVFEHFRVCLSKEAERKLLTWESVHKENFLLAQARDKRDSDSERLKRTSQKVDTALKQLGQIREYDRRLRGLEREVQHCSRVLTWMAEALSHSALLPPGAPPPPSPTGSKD

[1] = In vivo pharmacokinetics after single i.p. or i.v. dose; details: female, C57BL/6J, mouse
Experimental: Next, to assess in vivo availability of the Series 1–3 compounds, we evaluated drug metabolism and pharmacokinetics (DMPK). We measured compound concentrations in plasma, heart, and brain at several time points after intraperitoneal (i.p.) or intravenous (i.v.) single-dose injections.
Half-life and bioavailability were calculated by noncompartmental analysis using the R package PK[84] (v1.3-6).

[2] = test system: hsTRPM4 L907A, S924A and L907A/S924A mutants; experiment: Whole-cell patch clamp of wild-type and binding-site mutant hsTRPM4; details: whole-cell voltage clamp, HEK293T
Source text: Initially, we assessed the basic properties of the hsTRPM4 mutants using whole-cell patch clamp electrophysiology.

human TRPM4 = human TRPM4 (Homo sapiens, UniProt Q8TD43); experiment: Inside-out patch clamp, human TRPM4; assay type: cell-based; parameters: Human TRPM4 (UniProtKB: Q8TD43-1) and mouse Trpm4 (UniProtKB: Q7TN37-1) were amplified via PCR; expressed in transfected cells; details: inside-out patch clamp configuration
human TRPM4, sequence (Q8TD43 whole entry): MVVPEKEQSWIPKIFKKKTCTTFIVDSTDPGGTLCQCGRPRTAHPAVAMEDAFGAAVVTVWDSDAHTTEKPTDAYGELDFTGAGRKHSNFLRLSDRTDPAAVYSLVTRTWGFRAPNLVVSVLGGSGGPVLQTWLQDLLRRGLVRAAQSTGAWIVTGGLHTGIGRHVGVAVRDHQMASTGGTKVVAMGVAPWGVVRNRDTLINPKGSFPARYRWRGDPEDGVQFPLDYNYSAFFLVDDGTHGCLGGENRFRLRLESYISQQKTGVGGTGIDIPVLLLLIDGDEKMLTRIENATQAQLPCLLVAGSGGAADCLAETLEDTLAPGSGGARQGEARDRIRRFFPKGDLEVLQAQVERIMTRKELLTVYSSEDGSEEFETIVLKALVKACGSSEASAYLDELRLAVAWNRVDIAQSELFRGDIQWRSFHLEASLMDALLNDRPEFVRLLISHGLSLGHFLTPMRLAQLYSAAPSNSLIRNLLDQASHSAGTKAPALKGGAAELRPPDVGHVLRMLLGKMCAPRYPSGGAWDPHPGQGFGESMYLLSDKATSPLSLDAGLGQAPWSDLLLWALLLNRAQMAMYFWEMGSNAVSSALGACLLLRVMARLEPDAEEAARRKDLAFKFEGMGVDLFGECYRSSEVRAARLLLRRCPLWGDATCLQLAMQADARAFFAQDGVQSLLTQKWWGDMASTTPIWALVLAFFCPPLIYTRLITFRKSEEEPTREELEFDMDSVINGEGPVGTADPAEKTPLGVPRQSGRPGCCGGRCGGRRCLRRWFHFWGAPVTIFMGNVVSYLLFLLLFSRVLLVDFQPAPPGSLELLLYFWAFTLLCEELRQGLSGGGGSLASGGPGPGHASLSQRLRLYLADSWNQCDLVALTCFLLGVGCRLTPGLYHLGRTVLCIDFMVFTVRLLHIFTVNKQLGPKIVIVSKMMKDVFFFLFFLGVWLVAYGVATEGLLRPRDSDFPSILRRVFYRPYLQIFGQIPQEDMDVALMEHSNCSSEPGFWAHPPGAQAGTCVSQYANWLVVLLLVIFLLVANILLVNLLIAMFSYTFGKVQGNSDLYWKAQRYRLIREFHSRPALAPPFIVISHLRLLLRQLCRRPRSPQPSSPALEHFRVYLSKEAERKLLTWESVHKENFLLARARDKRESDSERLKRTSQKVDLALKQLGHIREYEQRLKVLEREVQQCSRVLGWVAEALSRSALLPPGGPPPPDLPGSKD
Experimental: Patch clamp recordings were conducted using an EPC10 patch clamp amplifier and Patchmaster software (HEKA, Germany). An Ag/AgCl wire served as the reference electrode in all experiments. […] Liquid junction potential was compensated before achieving gigaseal formation. All experiments were conducted at room temperature. Whole-cell currents were recorded in transiently transfected HEK293 cells expressing either wildtype human TRPM4, TRPM4-L907A, or TRPM4-S924A. Recordings involved a 400 ms increasing voltage ramp from –100 mV to +100 mV, initiated from a holding potential of 0 mV. The interval between each sweep was 2 seconds, with data sampled at 5 kHz. […] To identify TRPM4 currents, extracellular Na^+ was replaced with equimolar NMDG^+. […] Similar to whole-cell recordings, a 400 ms increasing voltage ramp from –100 mV to +100 mV was applied from a holding potential of 0 mV. The interval between sweeps was 2 seconds, and data were sampled at 5 kHz. […] TRPM4 currents were activated by 500 μM CaCl2 and deactivated by 10 mM EGTA, both added to the intracellular solution. Ca^2+ activation curves were fitted using a likelihood maximization algorithm to estimate the parameters for the sigmoidal fitting curves y-maximum, slope and midpoint as part of the R package sicegar (V0.2.4).

[3] = Parallel Artificial Membrane Permeability Assay (PAMPA); assay type: in vitro ADME; details: pH not given
Experimental: Parallel Artificial Membrane Permeability Assay (PAMPA) was performed using artificial lipid membrane layers to assess passive permeability of the test compound. Test compounds were diluted to 200 μM in system buffer at pH 5.0, 6.2 and 7.4. The solutions were filtered and 150 μL transferred to a High Sensitivity 96 well UV plate. This was analysed by UV as the reference plate. A 200 μL sample of the 200 μM solution was transferred to the ‘donor’ plate of the PAMPA pIon sandwich plate system. 200 μL of acceptor sink buffer was transferred to the ‘acceptor’ plate which had been previously treated with GIT-O lipid solution across the well filter. Donor and acceptor plates were sandwiched and kept in a humid environment at room temperature for 16 hours. On completion of the incubation the donor and acceptor plates were separated. 150 μL of solution was transferred from each of the donor and acceptor PAMPA sandwich plates into High Sensitivity 96 well UV plates for analysis by UV. at different time points. The concentration of the compound in the acceptor compartment was determined using mass spectrometry. The permeability coefficient (Papp) was calculated based on the rate of appearance of the compound in the acceptor compartment (nm/s).

CYP 2C9 = target: T2, CYP 2C9 (Homo sapiens, UniProt P11712); experiment: CYP inhibition assay 2C9; assay type: in vitro ADME
T2 construct: purchased BD Gentest
T2 sequence (P11712 whole entry): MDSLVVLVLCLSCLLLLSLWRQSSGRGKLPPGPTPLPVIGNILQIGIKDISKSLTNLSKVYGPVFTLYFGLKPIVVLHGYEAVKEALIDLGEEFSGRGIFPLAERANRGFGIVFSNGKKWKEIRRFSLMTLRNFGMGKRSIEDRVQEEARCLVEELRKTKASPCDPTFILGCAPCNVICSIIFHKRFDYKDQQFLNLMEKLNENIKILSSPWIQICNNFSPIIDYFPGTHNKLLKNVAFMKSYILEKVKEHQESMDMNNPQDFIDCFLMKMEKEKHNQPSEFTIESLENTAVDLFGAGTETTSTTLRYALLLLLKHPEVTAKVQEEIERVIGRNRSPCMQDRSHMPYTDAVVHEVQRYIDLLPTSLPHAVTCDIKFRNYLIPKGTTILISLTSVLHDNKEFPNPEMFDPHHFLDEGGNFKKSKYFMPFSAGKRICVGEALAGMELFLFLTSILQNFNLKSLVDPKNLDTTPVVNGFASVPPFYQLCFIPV
Experimental: (§1) The half-maximal inhibitory concentration (IC50) for cytochrome P450 (CYP) enzymes was determined using an in vitro enzyme inhibition assay. Recombinant CYP enzymes or human liver microsomes from BD Gentest, in 0.1 M phosphate buffer pH 7.4, containing native CYP enzymes were incubated with the test compound at various concentrations (1, 3, 10 and 30 μM) and containing 0.5% DMSO and 0.1% BSA final concentrations. 1 mM of NADPH cofactor was added and the reaction was started by a rapid increase of temperature until 37°C.

CYP 2C19 = target: T3, CYP 2C19 (Homo sapiens, UniProt P33261); experiment: CYP inhibition assay 2C19; assay type: in vitro ADME
T3 construct: purchased BD Gentest
T3 sequence (P33261 whole entry): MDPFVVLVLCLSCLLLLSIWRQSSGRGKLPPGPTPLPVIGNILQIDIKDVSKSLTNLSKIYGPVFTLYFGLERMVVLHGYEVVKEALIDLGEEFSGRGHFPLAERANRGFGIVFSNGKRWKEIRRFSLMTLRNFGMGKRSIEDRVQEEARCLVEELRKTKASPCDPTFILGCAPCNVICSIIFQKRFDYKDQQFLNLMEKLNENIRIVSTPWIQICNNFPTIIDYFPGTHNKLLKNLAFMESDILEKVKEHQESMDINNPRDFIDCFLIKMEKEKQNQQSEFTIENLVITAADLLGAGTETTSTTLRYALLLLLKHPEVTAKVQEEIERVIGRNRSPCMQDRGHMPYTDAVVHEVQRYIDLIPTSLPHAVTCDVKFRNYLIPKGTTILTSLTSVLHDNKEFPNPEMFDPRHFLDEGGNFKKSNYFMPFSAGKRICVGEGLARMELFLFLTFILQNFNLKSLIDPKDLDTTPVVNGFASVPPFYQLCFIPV
Experimental: as §1

Fc1cccc(-c2ccccc2NCc2nc3ccccc3o2)c1 [CMP343]
Activity on mouse TRPM4 (mouse TRPM4): reduced activity on mouse TRPM4 compared to human TRPM4
Activity on mouse TRPM4 (mouse TRPM4; listed as 343): significantly less effective on mouse TRPM4
half-life ([1]; brain, ip, read-out: Brain half-life (converted)): 2.1 h
half-life ([1]; brain, iv, read-out: Brain half-life (converted)): 0.2 h
half-life ([1]; heart, ip, read-out: Heart half-life (converted)): 15.3 h
half-life ([1]; heart, iv, read-out: Heart half-life (converted)): 2.1 h
half-life ([1]; plasma, ip, read-out: Plasma half-life (converted)): 4.3 h
half-life ([1]; plasma, iv, read-out: Plasma half-life (converted)): 0.3 h
Current inhibition of hsTRPM4 L907A and S924A mutants versus wildtype [2]: significantly reduced current inhibition in at least one hsTRPM4 mutant variant
Activity on human TRPM4 (human TRPM4): almost completely blocked

Fc1ccccc1-c1ccccc1NCc1nc2ccccc2o1 [CMP353]
PAMPA perm. [3]: low sensitivity

c1csc(-c2ccccc2NCc2nc3ccccc3o2)c1 [CMP355]
IC50 (CYP 2C9): 14.9 µM
IC50 (CYP 2C19): 6.2 µM

Nc1ccccc1-c1ccccc1NCc1nc2ccccc2o1 [CMP457]
Papp at 16 h, 200 μM ([3]; PAMPA, read-out: PAMPA perm.): 37.4 ×10⁻⁶ cm/s
